Laboratory results reported in PubChem BioAssay AID1918986 (Small Molecule Screening Facility, UW Madison, 2023).
Calls of active or inactive are those of the source.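 Rule for the calls: active = full-shape inhibition curve with partial efficacy, or partial curve whose IC50 upper confidence bound lies within tested doses; inactive = the rest.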

These molecules were tested against Klebsiella pneumoniae PriA-SSB C-terminal tail interaction (assay: inhibitors of PriA–SSB C-terminal tail binding, dose response, biochemical, AlphaScreen, virtual screen prioritized set (AID 1918986)). Details: PriA binding to biotinylated SSBct peptide.
For `C1=C(c2cccc3cccnc23)CCNC1`, the outcome was “inactive”. `O=C(Cc1ccc(S(=O)(=O)N2CCOCC2)s1)Nc1nc(-c2ccccn2)cs1` was tested, and the outcome was “inactive”. `O=C(CN1C(=O)COc2ccc([N+](=O)[O-])cc21)Nc1nc(-c2ccccn2)cs1` was tested, and the IC50 was 12.4 µM. For `O=c1[nH]c(NN=Cc2ccccn2)nc2ccccc12`, the outcome was “inactive”. For `CC1Sc2ccc(C(=O)Nc3nc(-c4ccccn4)cs3)cc2NC1=O` (stereo not drawn), the IC50 was 7.99 µM. With `CSCC(CCO)Nc1ccnc2c1ccc1cccnc12` (stereo not drawn) the IC50 was 10.8 µM. `O=c1[nH]ncc(NN=Cc2ccccn2)c1Cl` was tested, and the outcome was “inactive”. For `O=[N+]([O-])c1ccc(SC2CCCCC2)c2ncccc12`, the IC50 was “inactive”. For `Oc1cccnc1SCc1ccc(F)c2cccnc12`, the outcome was “inactive”. In the case of `O=C(CSc1cccc2cccnc12)Nc1cccc(N2CCCC2=O)c1`, the outcome is reported as “inactive”. For `c1ccc(-c2n[nH]c3ccccc23)nc1`, the outcome was “inactive”. `Cc1cccc2nc(CSc3cccc4cccnc34)cn12` was tested, and the outcome was “inactive”. In the case of `Cc1cc(C)cc(OCCN(C)C(=O)CSc2cccc3cccnc23)c1`, the outcome is reported as “inactive”. `CN(C)CCN(C)c1ccc2ccc3cccnc3c2n1` was tested, and the outcome was “inactive”. Work on `Clc1cncnc1NN=Cc1ccccn1` yielded an IC50 of 1.7 µM. For `c1cnc2c(Cn3ccnc3)cccc2c1`, the outcome was “inactive”. `CC(C)(C)c1ncc(-c2cccc3cccnc23)o1` was tested, and the outcome was “inactive”. In the case of `CC1(C)CC(CSc2cccc3cccnc23)=NO1`, the outcome is reported as “inactive”. `O=C(Nc1nc(-c2ccccn2)cs1)C1(C2CCCCO2)CCCO1` (stereo not drawn) was tested, and the outcome was “inactive”. For `OCCC(Nc1ccnc2c1ccc1cccnc12)C(F)F` (stereo not drawn), the IC50 was 4.48 µM. For `Fc1cccc(CNc2nc(-c3ccccn3)nc3c2CCC3)c1F`, the IC50 was 6.11 µM. For `Cc1nn(C(C)C)cc1-c1ccc2cccnc2c1C`, the outcome was “inactive”. In the case of `c1cc(CSc2cccc3cccnc23)cc(CN2CCOCC2)c1`, the outcome is reported as “inactive”. In the case of `CC1CCC(=NNc2ccccc2[N+](=O)[O-])CC1` (stereo not drawn), the IC50 is reported as 3.64 µM. `CSCC(CCO)Nc1ccc2ccc3cccnc3c2n1` (stereo not drawn) gave an IC50 of 9.08 µM. With `Clc1cccnc1NN=Cc1ccccn1` the outcome was “inactive”. `c1cnc2c(SCCn3cncn3)cccc2c1` was tested, and the outcome was “inactive”. `CC(C)N(C)S(=O)(=O)c1ccc(F)c(C(=O)Nc2nc(-c3ccccn3)cs2)c1` was tested, and the IC50 was 6.82 µM. `c1ccc(-c2csc(NC3COC4(CCC4)C3)n2)nc1` (stereo not drawn) was tested, and the outcome was “inactive”. With `c1cc2c(c(-c3cccc4cccnc34)c1)CNC2` the outcome was “inactive”. With `CCc1nc(C)c(CSc2cccc3cccnc23)o1` the outcome was “inactive”. For `Cc1ccc(-n2nc(C)cc2NC(=O)CSc2cccc3cccnc23)cc1`, the outcome was “inactive”. In the case of `Clc1ccc(CN2CCOCCOCC2)c2ncccc12`, the outcome is reported as “inactive”. `O=[N+]([O-])c1ncn(Cc2cccc3cccnc23)n1` was tested, and the outcome was “inactive”. For `O=C(O)c1cc(C(=O)N2CCS(=O)(=O)CC2)ccn1`, the outcome was “inactive”. With `CCCN1CCCc2cc(C(C)C)ccc21` the outcome was “inactive”. Work on `Cc1ccc(-c2nc(SCC(=O)NCc3ccnc(-c4ccccn4)n3)n[nH]2)cc1` yielded an IC50 of 37.8 µM. `Cc1nc(SCC(=O)Nc2n[nH]c(-c3ccccn3)n2)n[nH]1` gave an IC50 of 15.5 µM. With `Cc1cc(-c2ccccn2)n[nH]1` the outcome was “inactive”. `OCCCN(CCO)c1ccc2ccc3cccnc3c2n1` was tested, and the outcome was “inactive”. For `Nc1ncc(-c2ccccn2)cn1`, the outcome was “inactive”. `CC(C)c1ncc(-c2cccc3cccnc23)n1C` was tested, and the outcome was “inactive”. For `Fc1cccc2[nH]c(-c3ccccn3)nc12`, the outcome was “inactive”. Work on `O=C1CC2(CCOC2)C(C(=O)Nc2nc(-c3ccccn3)cs2)CN1` (stereo not drawn) yielded an IC50 of 12.6 µM. With `CCOC(=O)c1[nH]c(C)c(C(=O)CSc2cccc3cccnc23)c1C` the outcome was “inactive”. For `C1=C[C@@H](CNc2nc(-c3ccccn3)cs2)[C@H]2CO[C@@H]1C2`, the IC50 was 11.5 µM. With `O=C(O)CSc1ccc([N+](=O)[O-])c2cccnc12` the outcome was “inactive”. `C(=NNc1ncnc2sccc12)c1ccccn1` showed an IC50 of 2.68 µM. Molecule `OCCCCNc1ccc2ccc3cccnc3c2n1` has an IC50 of 4.33 µM. For `O=C(O)c1cc(-c2ccccc2)ccn1`, the IC50 was 21 µM. Work on `Cc1c(N)nc(-c2ccccn2)nc1NCC1CCC(C2CC2)O1` (stereo not drawn) yielded an IC50 of 5.44 µM. Molecule `COc1cc([N+](=O)[O-])c(C(=O)Nc2nc(-c3ccccn3)cs2)cc1SC` has an IC50 of 7.02 µM. `CC1CC(Nc2nc(-c3ccccn3)nc3c2CCC3)CC(C)N1` (stereo not drawn) showed an IC50 of 12.1 µM. In the case of `c1ccc(-c2nc3c(c(N4CCCC4)n2)CCC3)nc1`, the IC50 is reported as 17.6 µM. `CCOC(=O)c1c(C)[nH]c(C(=O)CSc2cccc3cccnc23)c1C` was tested, and the outcome was “inactive”. For `c1cnc2c(SCc3ccn4ncnc4c3)cccc2c1`, the outcome was “inactive”. `FC(F)(F)c1cnc(NN=Cc2ccccn2)c(Cl)c1` was tested, and the IC50 was 20.2 µM. For `COC(C)COc1ccc2ccc3cccnc3c2n1` (stereo not drawn), the outcome was “inactive”. In the case of `CO[C@H](C)[C@@H](C)Nc1nc(-c2ccccn2)nc2c1CCC2`, the IC50 is reported as 13.9 µM. For `O=[N+]([O-])c1cc(Cl)cc(C=Nc2ccc(Cl)c3ncccc23)c1O`, the outcome was “inactive”. `O=C(Nc1nc(-c2ccccn2)cs1)c1ccc(Cl)c(S(=O)(=O)NCC2CCCO2)c1` (stereo not drawn) was tested, and the IC50 was 10 µM. In the case of `O[C@@H]1COC[C@@H]1Nc1ccc2ccc3cccnc3c2n1`, the IC50 is reported as 4.26 µM. `CC1CC(Nc2nc(-c3ccccn3)cs2)C1` (stereo not drawn) gave an IC50 of 13.1 µM. Work on `C(=NNc1ncnc2nc[nH]c12)c1ccccn1` yielded an IC50 of 1.29 µM. In the case of `c1ccc(-c2cnc3n2CCC3)nc1`, the outcome is reported as “inactive”. Molecule `c1ccc(-c2ncc[nH]2)nc1` has an IC50 of 15.7 µM. For `Cn1ccc(C23CCC(C2)C3C(=O)Nc2nc(-c3ccccn3)cs2)n1` (stereo not drawn), the IC50 was 22.2 µM. For `c1cncc(CSCc2cccc3cccnc23)c1`, the outcome was “inactive”.
